# Measured values from ChEMBL document CHEMBL1201862, “PubChem BioAssay data set” (2004).
# Activity calls are given as the source filed them.
# Key:
# Cytochrome P450 3A4 = Cytochrome P450 3A4 (Homo sapiens, UniProt P08684); conditions: Potency;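 also: confirmatory qHTS run detecting inhibitors and substrates of CYP3A4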
# [1] = A cytotoxicity screen of small molecule inhibitors of the PhoP region in Salmonella typhi identified in the primary screen. [Related pubchem assays: 1850, 1864, 1985 ]; format: functional
# [2] = inhibition of ADAM10 peptide cleavage – biochemical, FRET peptide substrate, recombinant human ADAM10, selectivity assay for ADAM17 exosite inhibitor project, dose response (AID 743259);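 also: ADAM10 enzyme cleaving a FRET peptide substrate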
# [3] = target: Disintegrin and metalloproteinase domain-containing protein 17 (Homo sapiens, UniProt P78536); experiment: exosite inhibitors of ADAM17, dose response, biochemical (AID 743260)
# [4] = M. tuberculosis H37Rv growth inhibitors, H37Rv strain (AID 1626); format: functional
# [5] = viability of uninfected HEp-2 cells – cell-based, HTS, cytotoxicity control for RSV inhibitor project, dose response (AID 2410); format: functional; conditions: human respiratory syncytial virus
# Protein skinhead-1 = target: T1, Protein skinhead-1 (Caenorhabditis elegans, UniProt P34707); format: functional
# T1 sequence (P34707 whole entry): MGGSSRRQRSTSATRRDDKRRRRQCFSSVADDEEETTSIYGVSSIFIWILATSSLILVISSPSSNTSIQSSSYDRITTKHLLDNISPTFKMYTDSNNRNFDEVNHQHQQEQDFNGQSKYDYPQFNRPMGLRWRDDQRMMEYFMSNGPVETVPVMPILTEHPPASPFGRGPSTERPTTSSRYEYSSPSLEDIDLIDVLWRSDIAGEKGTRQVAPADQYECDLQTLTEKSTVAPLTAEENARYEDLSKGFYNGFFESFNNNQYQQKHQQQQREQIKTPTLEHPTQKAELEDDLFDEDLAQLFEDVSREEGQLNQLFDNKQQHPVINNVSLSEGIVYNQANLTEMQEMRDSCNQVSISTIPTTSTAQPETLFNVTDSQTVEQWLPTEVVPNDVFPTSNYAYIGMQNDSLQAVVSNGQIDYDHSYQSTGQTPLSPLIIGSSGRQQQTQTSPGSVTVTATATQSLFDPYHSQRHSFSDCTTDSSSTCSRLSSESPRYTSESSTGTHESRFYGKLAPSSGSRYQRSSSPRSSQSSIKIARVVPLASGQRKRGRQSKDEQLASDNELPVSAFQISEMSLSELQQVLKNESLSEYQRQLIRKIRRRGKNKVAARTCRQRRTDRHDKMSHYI
# BJ [6] = experiment: BJ-TERT fibroblast viability loss – cell-based, RAS-independent, luminescence, dose response (AID 1933); format: functional; conditions: Homo sapiens
# BJ [7] = experiment: cells; format: functional, cell-based; conditions: Homo sapiens
# [8] = Luminescence Cell-Based Dose Retest to Confirm Inhibitors of Cancer Stem Cells. [Related pubchem assays (depositor defined):AID2717, AID2721]; format: functional; conditions: Homo sapiens
# [9] = DRD fibroblast viability loss – cell-based, non-viral oncogenic, luminescence, dose response (AID 1934); format: functional; conditions: Homo sapiens
# Vero = experiment: cells; format: functional; conditions: Chlorocebus sabaeus
# BJ [10] = experiment: growth inhibition of engineered Ras-driven BJ cells – cell-based, alamar blue fluorescence, cherrypicked samples, dose response (AID 2631); format: functional; conditions: Homo sapiens;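 also: confirmatory dose-response assay in RAS-dependent BJ fibroblasts engineered with TERT, LT and ST, with cytotoxicity read by fluorescence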
# BJ [11] = experiment: BJ-TERT-LT-ST fibroblast viability loss – cell-based, RAS-independent, luminescence, dose response (AID 1935); format: functional; conditions: Homo sapiens;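 also: BJ fibroblasts immortalized with TERT plus LT and ST oncogenes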
# Estrogen receptor beta = Estrogen receptor beta (Homo sapiens, UniProt Q92731); experiment: blockers of SRC-3 recruitment to ERβ – biochemical, ELISA, streptavidin-HRP readout, orthogonal assay, confirmation (AID 1060)
# [12] = Trypanosoma cruzi growth suppression in host cells – NIH3T3 host cells, beta-gal luminescence, confirmation (AID 2044); format: functional, cell-based;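 also: intracellular parasites grown in NIH/3T3 mouse fibroblasts as host cells; luminescent beta-galactosidase reporter signal from transgenic T. cruzi replicating inside host cells; inhibitors lower the luminescence signal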
# [13] = NIH3T3 cell viability loss – ATP luminescence, mouse fibroblasts, counter-screen, dose response (AID 2010); format: functional, cell-based;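 also: cells exposed to compound for about 90 hours before reading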
# Prothrombin = Prothrombin (Homo sapiens, UniProt P00734); experiment: Thrombin 1536 HTS Dose Response Confirmation. [Related pubchem assays: 1046 (Thrombin 1536 HTS; hits were confirmed in this assay)]; format: functional
# Streptococcus = experiment: GAS UMAA2166 growth inhibition – luminescence, BacTiterGlo, counter-screen for streptokinase expression inhibitor project, dose response (AID 1915); format: functional, organism-based;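 also: potency for reduction of bacterial viability or growth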
# Streptokinase A = target: T2, Streptokinase A (Streptococcus pyogenes serotype M1, UniProt P10520); experiment: viability-normalized secreted streptokinase activity reduction – plasminogen activation absorbance, OD405, dose response (AID 1914); format: functional, Streptococcus pyogenes M1 GAS;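 also: secreted streptokinase activity via plasminogen activation per viability signal from cell pellet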
# T2 sequence (P10520 whole entry): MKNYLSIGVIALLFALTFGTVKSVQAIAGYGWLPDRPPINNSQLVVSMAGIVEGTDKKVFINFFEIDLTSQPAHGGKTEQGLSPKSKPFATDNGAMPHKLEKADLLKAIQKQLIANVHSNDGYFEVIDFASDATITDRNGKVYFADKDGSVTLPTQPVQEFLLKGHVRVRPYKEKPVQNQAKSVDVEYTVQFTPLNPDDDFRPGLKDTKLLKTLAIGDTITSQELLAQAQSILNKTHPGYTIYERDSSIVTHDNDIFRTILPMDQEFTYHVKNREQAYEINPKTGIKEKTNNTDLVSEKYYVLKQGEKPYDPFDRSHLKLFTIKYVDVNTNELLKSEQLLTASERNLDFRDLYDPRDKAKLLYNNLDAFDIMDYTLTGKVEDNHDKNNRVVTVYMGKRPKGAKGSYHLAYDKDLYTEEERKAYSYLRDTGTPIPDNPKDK
# [14] = tested on: Streptococcus sp. 'group A'; experiment: Streptococcus pyogenes SK(-)GAS viability under kanamycin – luminescence, BacTiterGlo, confirmation, counter-screen for streptokinase expression inhibitor project, dose response (AID 1900); format: functional, organism-based
# [15] = target: T3, Heat shock factor protein 1 (Mus musculus, UniProt P38532); experiment: decrease of HSF1-responsive luciferase luminescence – cell-based, NIH3T3, dose retest, confirmation (AID 2382); format: functional;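 also: NIH3T3 fibroblasts with HSF1-driven luciferase reporter stressed by proteasome inhibitor MG132; luminescence from HSF1-driven luciferase expression after 8 hours of MG132 stress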
# T3 sequence (P38532 whole entry): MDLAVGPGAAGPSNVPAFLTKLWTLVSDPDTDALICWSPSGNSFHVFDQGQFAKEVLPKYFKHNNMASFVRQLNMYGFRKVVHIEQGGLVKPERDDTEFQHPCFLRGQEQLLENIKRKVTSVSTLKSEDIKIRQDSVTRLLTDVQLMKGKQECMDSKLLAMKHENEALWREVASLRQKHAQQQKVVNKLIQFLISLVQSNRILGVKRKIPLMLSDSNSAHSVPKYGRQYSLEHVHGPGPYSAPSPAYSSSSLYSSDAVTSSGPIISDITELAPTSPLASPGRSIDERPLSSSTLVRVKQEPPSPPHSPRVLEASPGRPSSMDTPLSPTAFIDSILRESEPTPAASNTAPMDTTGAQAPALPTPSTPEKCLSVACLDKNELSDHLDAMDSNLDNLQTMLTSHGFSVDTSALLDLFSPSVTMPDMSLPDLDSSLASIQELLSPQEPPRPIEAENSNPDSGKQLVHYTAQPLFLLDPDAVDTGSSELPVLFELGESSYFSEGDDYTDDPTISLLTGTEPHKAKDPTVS
# [16] = target: T4, DNA repair protein RAD52 homolog (Homo sapiens, UniProt P43351); format: functional, biochemical
# T4 sequence (P43351 whole entry): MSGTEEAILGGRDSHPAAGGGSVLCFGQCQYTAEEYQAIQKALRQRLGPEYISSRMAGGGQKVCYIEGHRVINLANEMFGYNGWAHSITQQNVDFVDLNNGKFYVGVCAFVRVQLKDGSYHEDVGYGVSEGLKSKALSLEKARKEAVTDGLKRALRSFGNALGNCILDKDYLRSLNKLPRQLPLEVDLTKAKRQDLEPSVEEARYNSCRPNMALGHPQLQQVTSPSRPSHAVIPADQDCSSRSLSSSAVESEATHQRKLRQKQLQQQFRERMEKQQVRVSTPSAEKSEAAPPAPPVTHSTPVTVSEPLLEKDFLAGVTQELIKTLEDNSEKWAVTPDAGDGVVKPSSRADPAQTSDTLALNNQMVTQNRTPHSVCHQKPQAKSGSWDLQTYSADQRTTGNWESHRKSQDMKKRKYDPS
# Coagulation factor XII = target: T5, Coagulation factor XII (Homo sapiens, UniProt P00748); format: functional;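 also: activated factor XIIa alpha cleaving a fluorogenic AMC peptide substrate; inhibitor potency from loss of enzyme activity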
# T5 sequence (P00748 whole entry): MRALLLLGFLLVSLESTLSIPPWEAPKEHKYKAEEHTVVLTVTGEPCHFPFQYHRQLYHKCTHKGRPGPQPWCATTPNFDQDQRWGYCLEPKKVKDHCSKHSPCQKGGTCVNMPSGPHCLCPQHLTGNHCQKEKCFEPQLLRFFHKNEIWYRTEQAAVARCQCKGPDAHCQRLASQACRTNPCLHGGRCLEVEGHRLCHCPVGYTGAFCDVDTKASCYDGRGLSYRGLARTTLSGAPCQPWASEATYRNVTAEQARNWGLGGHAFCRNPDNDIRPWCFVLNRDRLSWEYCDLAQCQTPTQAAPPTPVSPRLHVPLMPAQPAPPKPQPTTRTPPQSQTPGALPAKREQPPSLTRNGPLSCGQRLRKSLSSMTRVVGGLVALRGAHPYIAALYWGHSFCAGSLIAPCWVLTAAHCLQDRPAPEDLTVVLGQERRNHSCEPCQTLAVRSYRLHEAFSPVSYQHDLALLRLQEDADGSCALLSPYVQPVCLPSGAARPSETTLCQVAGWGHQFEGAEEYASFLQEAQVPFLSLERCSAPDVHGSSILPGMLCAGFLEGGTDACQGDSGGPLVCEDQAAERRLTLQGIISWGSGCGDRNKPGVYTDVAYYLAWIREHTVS
# [17] = growth inhibition of PfATP4-mutant resistant parasites – NITD609-resistant line, SYBR Green, dry powder, dose response (AID 1159571); format: functional, cell-based;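 also: parasites synchronized at ring stage by sorbitol before testing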
# [18] = growth inhibition of yeast DHODH-expressing 3D7 parasites – SYBR Green, dry powder samples, dose response (AID 1159570); format: functional, cell-based;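 also: parasite growth measured after 72 hours of compound exposure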
# [19] = P. falciparum Dd2 growth inhibitors, dose response, SYBR Green, cherry-picked samples (AID 1159567); format: functional, cell-based
# [20] = Dd2 malaria parasite growth inhibition potency – SYBR Green, dry powder samples, dose response (AID 1159566); format: functional, cell-based;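 also: potency for growth inhibition with lower SYBR green DNA signal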
# Sequence of Disintegrin and metalloproteinase domain-containing protein 17 (P78536 whole entry, the tested form may be a part): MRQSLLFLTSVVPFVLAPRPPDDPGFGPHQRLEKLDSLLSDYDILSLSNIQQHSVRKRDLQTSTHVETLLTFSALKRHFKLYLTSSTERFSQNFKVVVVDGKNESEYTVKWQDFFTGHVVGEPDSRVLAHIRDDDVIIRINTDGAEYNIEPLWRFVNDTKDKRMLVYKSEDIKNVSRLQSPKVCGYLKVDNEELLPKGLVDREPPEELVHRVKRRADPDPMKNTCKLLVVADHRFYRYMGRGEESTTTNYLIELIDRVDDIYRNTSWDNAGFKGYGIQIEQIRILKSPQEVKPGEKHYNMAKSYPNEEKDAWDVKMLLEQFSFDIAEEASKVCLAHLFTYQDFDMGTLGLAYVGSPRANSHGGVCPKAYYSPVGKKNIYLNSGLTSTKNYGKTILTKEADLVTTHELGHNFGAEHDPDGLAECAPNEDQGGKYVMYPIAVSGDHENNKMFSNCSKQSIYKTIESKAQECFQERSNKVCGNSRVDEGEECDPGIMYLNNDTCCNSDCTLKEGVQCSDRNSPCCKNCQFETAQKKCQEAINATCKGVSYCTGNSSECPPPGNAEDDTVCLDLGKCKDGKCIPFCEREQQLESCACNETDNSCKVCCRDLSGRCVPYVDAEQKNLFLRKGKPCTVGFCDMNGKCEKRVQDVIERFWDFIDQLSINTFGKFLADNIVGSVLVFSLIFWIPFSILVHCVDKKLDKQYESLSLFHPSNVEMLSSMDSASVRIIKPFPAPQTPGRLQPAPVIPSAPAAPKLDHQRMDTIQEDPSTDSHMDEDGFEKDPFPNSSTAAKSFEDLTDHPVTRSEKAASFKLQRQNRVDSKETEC
# Sequence of Cytochrome P450 3A4 (P08684 whole entry): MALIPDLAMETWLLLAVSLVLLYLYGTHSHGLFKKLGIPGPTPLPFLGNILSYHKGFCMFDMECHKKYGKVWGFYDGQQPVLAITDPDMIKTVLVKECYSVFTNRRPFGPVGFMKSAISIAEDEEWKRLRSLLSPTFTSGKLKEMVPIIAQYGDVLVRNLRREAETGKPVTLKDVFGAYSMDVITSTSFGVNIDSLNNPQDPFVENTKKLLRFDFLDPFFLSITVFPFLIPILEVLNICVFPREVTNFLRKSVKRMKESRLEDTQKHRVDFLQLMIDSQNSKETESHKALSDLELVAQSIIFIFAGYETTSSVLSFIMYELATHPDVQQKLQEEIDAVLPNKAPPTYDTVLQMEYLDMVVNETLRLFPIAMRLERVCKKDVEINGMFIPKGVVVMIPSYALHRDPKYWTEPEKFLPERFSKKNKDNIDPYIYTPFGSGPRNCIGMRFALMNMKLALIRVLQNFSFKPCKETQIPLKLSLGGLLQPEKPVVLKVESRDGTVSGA
# Sequence of Estrogen receptor beta (Q92731 whole entry): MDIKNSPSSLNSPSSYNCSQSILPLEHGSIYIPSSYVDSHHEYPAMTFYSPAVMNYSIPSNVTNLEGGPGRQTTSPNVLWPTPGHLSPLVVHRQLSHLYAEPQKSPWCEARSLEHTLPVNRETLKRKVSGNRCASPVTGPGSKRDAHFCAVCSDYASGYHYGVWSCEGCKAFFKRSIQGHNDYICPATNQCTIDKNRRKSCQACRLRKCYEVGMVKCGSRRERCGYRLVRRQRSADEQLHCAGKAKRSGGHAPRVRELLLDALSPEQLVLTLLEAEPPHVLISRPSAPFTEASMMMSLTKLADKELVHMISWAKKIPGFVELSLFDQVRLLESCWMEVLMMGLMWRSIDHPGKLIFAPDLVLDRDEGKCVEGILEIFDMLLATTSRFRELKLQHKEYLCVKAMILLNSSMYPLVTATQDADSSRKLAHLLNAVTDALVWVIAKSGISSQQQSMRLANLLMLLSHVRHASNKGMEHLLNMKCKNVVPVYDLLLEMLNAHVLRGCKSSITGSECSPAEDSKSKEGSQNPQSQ
smiles,measurement,setting,value
Cc1cc(=O)cc2oc3cc(N)c(-c4c(C)cc(O)cc4O)c(C)c3nc1-2,AC50,Cytochrome P450 3A4,39.8 µM (inconclusive)
Cc1cccc(N(C(=O)CCC(=O)Nc2ccccn2)C(C(=O)NC(C)C)c2ccc(O)cc2)c1 (centres undefined),EC50,[1],> 50 µM (active)
Cc1cc(=O)oc2c(CN(C)Cc3ccccc3)c(O)ccc12,EC50,[1],> 50 µM (active)
Cc1cc(Oc2ccccc2)nc(SCC(=O)Nc2ccc(Cl)c(Cl)c2)n1,IC50,[2],10.4 µM (inactive)
same,IC50,[3],> 69.5 µM (inactive)
COC(=O)[C@@H]1C[C@@H]2CC[C@@H](O)C[C@@H]2N1Cc1ccc(C(F)(F)F)cc1,AC50,Cytochrome P450 3A4,10 µM (inconclusive)
CC(C)OC(=O)c1ccc(NC(=O)c2cncc(Br)c2)cc1,IC50,[4],> 100 µM (active)
same,CC50,[5],> 50 µM (active)
COc1cc(OC)cc(-c2c[nH]nc2N)c1,IC50,[2],> 69.5 µM (inactive)
COc1cc(OC)cc(-c2cn[nH]c2N)c1,IC50,[3],> 69.5 µM (inactive)
COc1ccccc1C1CN(c2ccc(F)cc2F)N=C1c1cccs1 (centres undefined),IC50,Protein skinhead-1,> 100 µM (inactive)
same,EC50,[1],> 50 µM (active)
CCCN1C/C(=C/c2ccc3c(c2)OCO3)C(=O)/C(=C/c2ccc3c(c2)OCO3)C1,EC50,BJ [6],4.04 µM (inconclusive)
same,EC50,BJ [7],14.9 µM (inconclusive)
same,AC50,[8],0.766 µM (active)
same,EC50,[9],4.99 µM (active)
same,IC50,[2],> 69.5 µM (inactive)
same,IC50,[3],19.6 µM (inactive)
same,CC50,Vero,9.59 µM (active)
same,EC50,BJ [10],0.582 µM (inconclusive)
same,EC50,BJ [11],2.94 µM (inconclusive)
CC1(C)C(=O)Nc2ccccc2N1C(=O)COc1ccc(S(=O)(=O)N2CCOCC2)cc1Cl,IC50,Estrogen receptor beta,< 0.023 µM (not active)
Cc1cccc(C(=N)NOC(=O)N2CCOCC2)c1,EC50,[12],2.63 µM (active)
same,IC50,[2],> 69.5 µM (inactive)
same,IC50,[3],> 69.5 µM (inactive)
same,EC50,[13],> 60 µM (not active)
COc1cccc2cc(C(=O)NCC3CCCO3)c(=O)oc12 (centres undefined),IC50,Prothrombin,> 50 µM (not active)
Cc1cc[n+](CC(=O)c2ccc(NC(=O)c3ccccc3)cc2)cc1,EC50,[1],> 50 µM (active)
Cc1ccc2nc(N(CCCN(C)C)C(=O)c3ccc(S(=O)(=O)N4CCCCCC4)cc3)sc2c1,EC50,Streptococcus,> 150 µM (not active)
same,EC50,[12],0.125 µM (active)
same,EC50,Streptokinase A,> 150 µM (not active)
same,EC50,[14],> 150 µM (not active)
same,EC50,[15],109 µM (active)
same,EC50,[13],> 60 µM (not active)
same,AC50,[16],30.7 µM (active)
CCCCc1nc2ccccc2c(NC(=O)CNC(C)(C)C)c1CCC,IC50,Prothrombin,> 50 µM (not active)
CN(C)CCCn1c(=S)[nH]c2sc3c(c2c1=O)CCCC3,AC50,[8],> 195 µM (inactive)
same,AC50,[16],5.83 µM (active)
CN1C(=O)/C(=N/OC(=O)c2ccccc2)c2ccccc21,IC50,Prothrombin,5.05 µM (active)
same,IC50,Coagulation factor XII,4.93 µM (active)
CC(/C=C(\O)c1ccc(C)o1)=N\c1ccc2c(c1)OCO2,IC50,[4],> 100 µM (active)
O=C(c1ccc(F)cc1)N1CC(=O)N2[C@H](C1)[C@@H](c1ccc(-c3cccnc3)cc1)[C@@H]2CO,AC50,[17],0.542 µM (active)
same,AC50,[18],0.786 µM (active)
same,AC50,[19],0.439 µM (active)
same,AC50,[20],0.42 µM (active)
COc1ccc(/N=C2\C(=O)Nc3ccccc32)cc1,IC50,[4],> 100 µM (active)
CSc1nc(-c2ccco2)nn1C(=O)c1ccccc1,IC50,Prothrombin,0.082 µM (active)
CCOC(=O)c1cn[nH]c1N,IC50,[4],> 100 µM (active)
COc1ccc(-c2coc3c(O)c(OC)ccc3c2=O)cc1 [RETUSIN 7-METHYL ETHER],AC50,Cytochrome P450 3A4,31.6 µM (inconclusive)
